Measured values: patent US11872217B2, “Indanes as PD-L1 inhibitors” (CHEMOCENTRYX, INC., priority 2019, dated 2024)

Target: human PD-L1 / Human PD-1 (Homo sapiens (Human), UniProt Q9NZQ7)
Assay: Enzyme-Linked Immunosorbent Assay (ELISA), PD-1/PD-L1 binding
Conditions: plates coated with human PD-L1; biotinylated human PD-1; absorbance at 450 nm
Description: 96 Well plates were coated with 1 μg/mL of human PD-L1 (obtained from R&D) in PBS overnight at 4° C. The wells were then blocked with 2% BSA in PBS (W/V) with 0.05% TWEEN-20 for 1 hour at 37° C. The plates were washed 3 times with PBS/0.05% TWEEN-20 and the compounds were serial diluted (1:5) in dilution medium and added to the ELISA plates. Human PD-1 and biotin 0.3 μg/mL (ACRO Biosystems) were added and incubated for 1 hour at 37° C. then washed 3 times with PBS/0.05% TWEEN-20. A second block was performed with 2% BSA in PBS (W/V)/0.05% TWEEN-20 for 10 min at 37° C. and the plates were washed 3 times with PBS/0.05% TWEEN-20. Streptavidin-HRP was added for 1 hour at 37° C. then the plates were washed 3 times with PBS/0.05% TWEEN-20. TMB substrate was added and reacted for 20 min at 37° C. A stop solution (2 N aqueous H2SO4) was added. The absorbance was read at 450 nm using a micro-plate spectrophotometer. The results are shown in Table 1: IC50 values are provided as follows: from 100 up to 10,000 nM (+); less than 100 nM (++).

human PD-L1 / Human PD-1, sequence (Q9NZQ7 19-239): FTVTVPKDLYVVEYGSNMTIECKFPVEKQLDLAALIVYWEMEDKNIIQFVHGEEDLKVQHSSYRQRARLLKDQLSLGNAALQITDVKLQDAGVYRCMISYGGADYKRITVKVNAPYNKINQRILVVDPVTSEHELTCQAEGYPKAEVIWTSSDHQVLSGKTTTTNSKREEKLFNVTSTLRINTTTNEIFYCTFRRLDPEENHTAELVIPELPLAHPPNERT

IC50 [nM]	SMILES
100 to 10000	CCOc1cc(OCc2cccc(-c3cccc4c3CCC4Oc3ccc(CN[C@@](C)(CO)C(=O)O)c(OCC)c3)c2C)ccc1CN[C@@](C)(CO)C(=O)O (stereo partly drawn) [Compound 1.023]
< 100	CCOc1cc(O[C@H]2CCc3c(-c4cccc5c4CC[C@@H]5Oc4cc(OCC)c(CN[C@@H](CCO)C(=O)O)cc4Cl)cccc32)c(Cl)cc1CN[C@@H](CCO)C(=O)O [Compound 1.047]
< 100	CCOc1cc(O[C@H]2CCc3c(-c4cccc5c4CC[C@@H]5Oc4cc(OCC)c(CN[C@@H](CO)C(=O)O)cc4Cl)cccc32)c(Cl)cc1CN[C@@H](CO)C(=O)O [Compound 1.045]
< 100	C[C@@](CO)(NCc1cc(Cl)c(O[C@H]2CCc3c(-c4cccc5c4CC[C@@H]5Oc4cc(OCc5cncc(C#N)c5)c(CN[C@@](C)(CO)C(=O)O)cc4Cl)cccc32)cc1OCc1cncc(C#N)c1)C(=O)O [Compound 1.051]
< 100	C[C@@H](O)[C@H](NCc1cc(Cl)c(O[C@H]2CCc3c(-c4cccc5c4CC[C@@H]5Oc4cc(OCc5cncc(C#N)c5)c(CN[C@H](C(=O)O)[C@@H](C)O)cc4Cl)cccc32)cc1OCc1cncc(C#N)c1)C(=O)O [Compound 1.039]
100 to 10000	CCOc1cc(O[C@H]2CCc3c(-c4cccc5c4CC[C@@H]5Oc4cc(OCC)c(CN(C)CCC(=O)OC)cc4Cl)cccc32)c(Cl)cc1CN(C)CCC(=O)OC [Compound 1.043]
< 100	CCOc1cc(O[C@H]2CCc3c(-c4cccc5c4CC[C@@H]5Oc4cc(OCC)c(CN[C@H](C(=O)O)[C@@H](C)O)cc4Cl)cccc32)c(Cl)cc1CN[C@H](C(=O)O)[C@@H](C)O [Compound 1.042]
100 to 10000	CC(C)OC(=O)[C@](C)(CO)NCc1cc(Cl)c(O[C@H]2CCc3c(-c4cccc5c4CC[C@@H]5Oc4cc(OCc5cncc(C#N)c5)c(CN[C@@](C)(CO)C(=O)OC(C)C)cc4Cl)cccc32)cc1OCc1cncc(C#N)c1 [Compound 1.041]
< 100	CCOc1cc(O[C@H]2CCc3c(-c4cccc(COc5cc(COC)c(CN[C@@](C)(CO)C(=O)O)cc5Cl)c4C)cccc32)c(Cl)cc1CN[C@@](C)(CO)C(=O)O [Compound 1.036]
< 100	CCOc1cc(O[C@H]2CCc3c(-c4cccc5c4CC[C@@H]5Oc4cc(OCC)c(CN[C@@](C)(CO)C(=O)O)cc4Cl)cccc32)c(Cl)cc1CN[C@@](C)(CO)C(=O)O [Compound 1.044]
< 100	Cc1c(COc2ccc(CN[C@@](C)(CO)C(=O)O)cc2Cl)cccc1-c1cccc2c1CCC2Oc1ccc(CN[C@@](C)(CO)C(=O)O)cc1Cl (stereo partly drawn) [Compound 1.024]
< 100	CCOc1cc(O[C@H]2CCc3c(-c4cccc5c4CC[C@@H]5Oc4cc(OCC)c(CN(C)CCCC(=O)O)cc4Cl)cccc32)c(Cl)cc1CN(C)CCCC(=O)O [Compound 1.025]
< 100	CCOc1cc(O[C@H]2CCc3c(-c4cccc5c4CC[C@@H]5Oc4cc(OCC)c(CN5CCC5(C)C)cc4Cl)cccc32)c(Cl)cc1CN1CCC1(C)C [Compound 1.048]
< 100	CN(Cc1cc(Cl)c(O[C@H]2CCc3c(-c4cccc5c4CC[C@@H]5Oc4cc(OCc5cncc(C#N)c5)c(CN(C)[C@@](C)(CO)C(=O)O)cc4Cl)cccc32)cc1OCc1cncc(C#N)c1)[C@@](C)(CO)C(=O)O [Compound 1.033]
< 100	CCOc1cc(O[C@H]2CCc3c(-c4cccc5c4CC[C@@H]5Oc4cc(OCC)c(CN[C@@](C)(CO)C(=O)O)cc4Cl)cccc32)c(Cl)cc1CNC[C@@H]1CCC(=O)N1 [Compound 1.032]
< 100	CCOc1cc(O[C@H]2CCc3c(-c4cccc5c4CC[C@@H]5Oc4cc(OCC)c(CN5CCC6(C5)NC(=O)NC6=O)cc4Cl)cccc32)c(Cl)cc1CN[C@@](C)(CO)C(=O)O (stereo partly drawn) [Compound 1.028]
< 100	CCOc1cc(O[C@H]2CCc3c(-c4cccc5c4CC[C@@H]5Oc4cc(OCc5cc(C#N)cc(C#N)c5)c(CN[C@@](C)(CO)C(=O)O)cc4Cl)cccc32)c(Cl)cc1CN[C@@](C)(CO)C(=O)O [Compound 1.026]
< 100	CCOc1cc(O[C@H]2CCc3c(-c4cccc5c4CC[C@H]5Oc4cc(OCC)c(CN[C@@](C)(CO)C(=O)O)cc4Cl)cccc32)c(Cl)cc1CN[C@@](C)(CO)C(=O)O [Compound 1.031]
100 to 10000	CCOc1cc(O[C@H]2CCc3c(-c4cccc5c4CC[C@@H]5Oc4cc(OCC)c(CN[C@H](C(=O)OC)[C@@H](C)O)cc4Cl)cccc32)c(Cl)cc1CN[C@H](C(=O)OC)[C@@H](C)O [Compound 1.034]
< 100	CCOc1cc(O[C@H]2CCc3c(-c4cccc5c4CC[C@@H]5Oc4cc(OCC)c(CN(C)CCC(=O)O)cc4Cl)cccc32)c(Cl)cc1CN(C)CCC(=O)O [Compound 1.049]
< 100	COC(=O)CCCN(C)Cc1cc(Cl)c(O[C@H]2CCc3c(-c4cccc5c4CC[C@@H]5Oc4cc(OCc5cncc(C#N)c5)c(CN(C)CCCC(=O)OC)cc4Cl)cccc32)cc1OCc1cncc(C#N)c1 [Compound 1.027]
< 100	CCOc1cc(O[C@H]2CCc3c(-c4cccc5c4CC[C@@H]5Oc4cc(OCC)c(CN[C@H](C(=O)NS(C)(=O)=O)[C@@H](C)O)cc4Cl)cccc32)c(Cl)cc1CN[C@H](C(=O)NS(C)(=O)=O)[C@@H](C)O [Compound 1.030]
< 100	CCOc1cc(O[C@H]2CCc3c(-c4cccc5c4CC[C@@H]5Oc4cc(OCC)c(CN5CC6(CC(O)C6)C5)cc4Cl)cccc32)c(Cl)cc1CN1CC2(CC(O)C2)C1 [Compound 1.050]

Further lines, the compound ahead of its results:

SMILES	IC50 [nM]
CCOc1cc(O[C@H]2CCc3c(-c4cccc5c4CC[C@@H]5Oc4cc(OCC)c(CN[C@@H](CO)C(N)=O)cc4Cl)cccc32)c(Cl)cc1CN[C@@H](CO)C(N)=O [Compound 1.014]	< 100
CCOc1cc(O[C@H]2CCc3c(-c4cccc5c4CC[C@@H]5Oc4cc(OCC)c(CN)cc4Cl)cccc32)c(Cl)cc1CN [Compound 1.003]	100 to 10000
CCOc1cc(O[C@@H]2c3cccc(-c4cccc(COc5cc(COC)c(CN[C@@](C)(CO)C(=O)O)cc5Cl)c4C)c3C[C@@H]2F)c(Cl)cc1CN[C@@](C)(CO)C(=O)O (mixture of isomers) [Compound 1.020]	< 100
CCOc1cc(O[C@H]2CCc3c(-c4cccc5c4CC[C@@H]5Oc4cc(OCC)c(CN[C@@](C)(CO)C(=O)OC)cc4Cl)cccc32)c(Cl)cc1CN[C@@](C)(CO)C(=O)OC [Compound 1.022]	100 to 10000
CCOc1cc(O[C@H]2CCc3c(-c4cccc5c4CC[C@@H]5Oc4cc(OCC)c(CN(C)CCCC(=O)OC)cc4Cl)cccc32)c(Cl)cc1CN(C)CCCC(=O)OC [Compound 1.021]	100 to 10000
CCOc1cc(OCc2cccc(-c3cccc4c3CC[C@@H]4Oc3cc(OCC)c(CNCCS(=O)(=O)O)cc3Cl)c2C)c(Cl)cc1CNCCS(=O)(=O)O [Compound 1.004]	< 100
CCOc1cc(O[C@H]2CCc3c(-c4cccc(COc5cc(COC)c(CN6CCC(OC(=O)C(C)C)CC6)cc5Cl)c4C)cccc32)c(Cl)cc1CN1CCC(OC(=O)C(C)C)CC1 [Compound 1.005]	100 to 10000
CCOc1cc(O[C@H]2CCc3c(-c4cccc5c4CC[C@@H]5Oc4cc(OCC)c(CN[C@H]5CCC(=O)NC5)cc4Cl)cccc32)c(Cl)cc1CN[C@H]1CCC(=O)NC1 [Compound 1.009]	< 100
CCOc1cc(O[C@H]2CCc3c(-c4cccc5c4CC[C@@H]5Oc4cc(OCC)c(CN(C)[C@@](C)(CO)C(=O)O)cc4Cl)cccc32)c(Cl)cc1CN(C)[C@@](C)(CO)C(=O)O [Compound 1.019]	< 100
CCOc1cc(O[C@H]2CCc3c(-c4cccc5c4CC[C@@H]5Oc4cc(OCC)c(CN(C)[C@@H](CO)C(=O)O)cc4Cl)cccc32)c(Cl)cc1CN(C)[C@@H](CO)C(=O)O [Compound 1.002]	< 100
CCOc1cc(NC2CCc3c(-c4cccc(COc5cc(OCC)c(CN(C)CCCC(=O)OC)cc5Cl)c4C)cccc32)c(Cl)cc1CN(C)CCCC(=O)OC (stereo not drawn) [Compound 1.016]	100 to 10000
CCOc1cc(O[C@H]2CCc3c(-c4cccc(COc5cc(COC)c(CN6CCC(OC(=O)[C@@H](N)C(C)C)CC6)cc5Cl)c4C)cccc32)c(Cl)cc1CN1CCC(OC(=O)[C@@H](N)C(C)C)CC1 [Compound 1.001]	100 to 10000
COc1cc(CN[C@@](C)(CO)C(=O)O)ccc1OCc1cccc(-c2cccc3c2CCC3Oc2ccc(CN[C@@](C)(CO)C(=O)O)cc2OC)c1C (stereo partly drawn) [Compound 1.011]	100 to 10000
CCOc1cc(O[C@H]2CCc3c(-c4cccc5c4CC[C@@H]5Oc4cc(OCC)c(CN(C)[C@@](C)(CO)C(=O)O)cc4Cl)cccc32)c(Cl)cc1CN(C)C[C@@H]1CCC(=O)N1 [Compound 1.006]	< 100
Cc1cc(CN[C@@](C)(CO)C(=O)O)ccc1OCc1cccc(-c2cccc3c2CCC3Oc2ccc(CN[C@@](C)(CO)C(=O)O)cc2C)c1C (stereo partly drawn) [Compound 1.008]	< 100
Cc1c(COc2ccc(CN[C@@](C)(CO)C(=O)O)cc2F)cccc1-c1cccc2c1CCC2Oc1ccc(CN[C@@](C)(CO)C(=O)O)cc1F (stereo partly drawn) [Compound 1.010]	100 to 10000
CCOc1cc(O[C@H]2CCc3c(-c4cccc5c4CC[C@@H]5Oc4cc(OCC)c(CN[C@@](C)(CO)C(=O)O)cc4Cl)cccc32)c(Cl)cc1CN[C@@H]1CCC[C@@H]1O [Compound 1.013]	< 100
CCOc1cc(NC2CCc3c(-c4cccc(COc5cc(OCC)c(CN(C)CCCC(=O)O)cc5Cl)c4C)cccc32)c(Cl)cc1CN(C)CCCC(=O)O (stereo not drawn) [Compound 1.015]	< 100
CCOc1cc(O[C@H]2CCc3c(-c4cccc(COc5cc(COC)c(CN(C)CCCC(=O)O)cc5Cl)c4C)cccc32)c(Cl)cc1CN(C)CCCC(=O)O [Compound 1.012]	< 100
